Results published in PMC3889466 (Journal of medicinal chemistry, 2013).
pEC50: −log10 of the molar value. Where two headings read alike, the source gives them in different places.

What was measured:
A/HK/7/87 = assay: microbe, parasite or virus in culture; type: cell-based, influenza A virus; settings: for EC90: Influenza A virus, MDCK, 24 h, read-out: Activity against A/HK/7/87 EC90
A/M2 wt = A/M2 wt (Influenza A virus, UniProt P0DOF5); settings: cited from earlier work
[1] = tested on: Influenza A/H1N1 (A/PR/8/34); type: cell-based, influenza A virus
MDCK cells [2] = tested on: MDCK cells
MDCK cells [3] = tested on: MDCK cells; remark: listed apart in the source
[4] = read-out: Antiviral EC50 Influenza A/H1N1 CPE
[5] = read-out: Antiviral EC50 Influenza A/H1N1 MTS
[6] = minimal alterations in cell morphology after 24 hr incubation
[7] = MDCK, minimal alterations in cell morphology after 72 hr

Chain of A/M2 wt (P0DOF5 whole entry): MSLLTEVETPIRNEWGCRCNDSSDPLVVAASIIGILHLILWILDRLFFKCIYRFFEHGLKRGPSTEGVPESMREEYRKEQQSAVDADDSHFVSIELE

Structure (SMILES)	pEC50 [1, 4]	pEC50 [1, 5]	Cytotoxicity at 72 hr MCC (minimum cytotoxic concentration) (MDCK cells [2]; dog) [µM]	Activity against A/HK/7/87 EC99 (A/HK/7/87) [µM]	other results
NC12CC3CC(CC(C3)C1)C2 [Amantadine, amantadine, reference compound]					Activity against A/HK/7/87 EC99 (A/HK/7/87; listed as Amt): ~ 1 μM
NC12C3CCC4C3C3C(CCC31)C42 [Compound 8]					Activity against the wt A/M2 channel (in words) (A/M2 wt): did not inhibit
NCC12C3CCC4C3C3C(CCC31)C42 [Compound 9]					Activity against the wt A/M2 channel (in words) (A/M2 wt): did not inhibit
C1=CC2C3C4C5C=CC4C24CNCC54C13 [Compound 10]					Activity against the wt A/M2 channel (in words) (A/M2 wt): promising activity
C1C2C1C1C3C4C5C6CC6C4C14CNCC54C23 (centres unmarked) [Compound 11]					Activity against the wt A/M2 channel (in words) (A/M2 wt): promising activity
CC12CC34CNCC3(C1)CC2(C)C4.Cl [Compound 14a, 7,8-Dimethyl-3-azatetracyclo[5.2.1.1^5,8.0^1,5]undecane hydrochloride]	< 4.00	< 4.00	100		
C1NCC23CC4CC12CC4C3.Cl [Compound 14b, 3-azatetracyclo[5.2.1.1^5,8.0^1,5]undecane hydrochloride]	< 4.00	< 4.00	100		
C1CCC23CC45CNCC4(CC2(C1)C5)C3.O=C(O)C(O)C(O)C(=O)O [Compound 14d, 12-Azapentacyclo[6.5.1.1^3,10.0^1,10.0^3,8]pentadecane (2R,3R)-tartrate]	< 4.00	< 4.00		>10	Cytotoxicity at 24 hr MCC (MDCK cells [3]; [6]): >50 µM; EC90 (A/HK/7/87): < 1 µM; Cytotoxicity at 72 hr MCC (minimum cytotoxic concentration) (MDCK cells [2]; [7]): 4.0 µM
CN1CC23CC4(C)CC2(C1)CC4(C)C3.Cl [Compound 15a, 3,7,8-Trimethyl-3-azatetracyclo[5.2.1.1^5,8.0^1,5]undecane hydrochloride]	< 4.00	< 4.00	≥20		
CN1CC23CC4CC2(CC4C3)C1.Cl [Compound 15b, 3-Methyl-3-azatetracyclo[5.2.1.1^5,8.0^1,5]undecane hydrochloride]	< 4.00	< 4.00	≥100		
CC12CC34CN(C(=N)N)CC3(C1)CC2(C)C4.Cl [Compound 16a, 3-Amidino-7,8-dimethyl-3-azatetracyclo[5.2.1.1^5,8.0^1,5]undecane hydrochloride]	< 4.00	< 4.00	4	0.79	Cytotoxicity at 24 hr MCC (MDCK cells [3]; dog): >50 µM; EC90 (A/HK/7/87): < 1 µM
Cl.N=C(N)N1CC23CC4CC2(CC4C3)C1 [Compound 16b, 3-Amidino-3-azatetracyclo[5.2.1.1^5,8.0^1,5]undecane hydrochloride]	< 4.30	< 4.30		≥38	Cytotoxicity at 24 hr MCC (MDCK cells [3]; dog): >50 µM
Cl.N=C(N)N1CC23CC45CCCCC4(C2)CC3(C1)C5 [Compound 16d, 12-Amidino-12-azapentacyclo[6.5.1.1^3,10.0^1,10.0^3,8]pentadecane hydrochloride]	< 4.00	< 4.00	4.0	>2	Cytotoxicity at 24 hr MCC (MDCK cells [3]; dog): ≥10 µM; EC90 (A/HK/7/87): < 1 µM
NC(=O)c1ncn([C@@H]2O[C@H](CO)[C@@H](O)[C@H]2O)n1 [Ribavirin, reference compound]				11	Cytotoxicity at 24 hr MCC (MDCK cells [3]; dog): >100 µM
CC(N)C12CC3CC(CC(C3)C1)C2 (centres unmarked) [Rimantadine, rimantadine, reference compound]				>4	Cytotoxicity at 24 hr MCC (MDCK cells [3]; [6]): ≥500 µM; Cytotoxicity at 72 hr MCC (minimum cytotoxic concentration) (MDCK cells [2]; [7]): 500 µM
